# Data from article PMC5845004, “Novel (p)ppGpp Binding and Metabolizing Proteins of Escherichia coli” (mBio, 2018).
# Entries after “also recorded” stand apart in the source; their conditions may differ. Like-named read-outs stand apart in the source and are kept apart here.
# Experiments:
# YgdH [1] = biological target: T1, YgdH (Escherichia coli, UniProt P0ADR8); assay: DRaCALA binding and Kd determination, purified YgdH; design: species or system E. coli; details: 20 µM YgdH, binding buffer with 10 mM MgCl2, no EDTA
# T1 sequence (P0ADR8 whole entry): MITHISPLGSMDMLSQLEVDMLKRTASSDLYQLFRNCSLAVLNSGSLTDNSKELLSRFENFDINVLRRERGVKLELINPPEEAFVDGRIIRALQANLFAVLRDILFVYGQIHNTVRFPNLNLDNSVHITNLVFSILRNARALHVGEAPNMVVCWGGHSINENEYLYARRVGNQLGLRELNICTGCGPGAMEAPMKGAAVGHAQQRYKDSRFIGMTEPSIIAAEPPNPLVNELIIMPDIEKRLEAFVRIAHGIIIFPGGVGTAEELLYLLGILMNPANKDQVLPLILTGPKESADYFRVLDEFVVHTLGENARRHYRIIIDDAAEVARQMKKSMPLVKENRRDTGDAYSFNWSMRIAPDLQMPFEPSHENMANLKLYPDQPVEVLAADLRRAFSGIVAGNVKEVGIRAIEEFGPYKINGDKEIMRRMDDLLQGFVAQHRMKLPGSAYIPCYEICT
# Description: For Kd measurements by DRaCALA, 2-fold serial dilutions from the highest possible concentrations of each purified protein were prepared in binding buffer B, and approximately 2 nM concentrations of α-^32P-labeled ppGpp, pppGpp, GTP, and GDP were added. The mixtures were incubated for 5 min at RT before spotting of 2 µl of the reaction mixtures onto nitrocellulose membranes. […] For competition assays, purified proteins at the specified concentrations were incubated with 2 nM [α-^32P]ppGpp or [α-^32P]pppGpp in the presence of 100 μM competitor nucleotides in binding buffer B. The reaction mixtures were incubated for 5 min at RT, 2 µl was spotted onto nitrocellulose membranes, and the values corresponding to the bound fractions were determined. EDTA was added at excess concentrations as specified for each case.
# NudG = biological target: T2, NudG (Escherichia coli, UniProt P77788); assay: In vitro cleavage assay (TLC), NudG; assay type: biochemical, E. coli; details: purified NudG, buffer B with 10 mM MgCl2, TLC
# T2 construct: expressed in transfected cells; host or cells: E. coli ASKA collection strain, IPTG-induced, whole-cell lysate
# T2 sequence (P77788 whole entry): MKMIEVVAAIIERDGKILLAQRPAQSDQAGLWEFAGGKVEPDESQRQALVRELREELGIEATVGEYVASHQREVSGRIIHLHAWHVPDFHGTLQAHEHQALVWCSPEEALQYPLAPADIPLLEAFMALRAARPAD
# Description: (§1) The purified His6-MutT and His6-NudG proteins were tested for their relative levels of cleavage of ppGpp compared to those seen with their native substrates. For this, a 1 μM concentration of each protein and a 10 nM concentration of [α-^32P]ppGpp were used together with 100 μM concentrations of cold competitors [ppGpp, GTP, ATP, 8-oxo-(d)GTP, 2-hydroxyl-(d)ATP] or 50 mM EDTA in buffer B. The samples were incubated at 30°C for 10 min and for 1 h before the reactions were stopped by adding 50 mM EDTA. The cleavage products were resolved by TLC as described above. The purified His6-NadR and His6-TrmE proteins were tested for their cleavage of both GTP and ppGpp. For cleavage of GTP, 10 μM concentrations of His6-MBP, His6-TrmE, and 20 μM His6-NadR proteins were used with 2 nM [α-^32P]GTP and 100 μM cold GTP in buffer B. For cleavage of ppGpp, 10 μM concentrations of His6-TrmE, His6-MBP, and His6-NadR proteins were used with 10 nM [α-^32P]ppGpp in buffer B. Of note, for His6-TrmE, another reaction was also performed in buffer B supplemented with 100 mM KCl. The reactions were performed at RT for 10 min and were stopped by adding 17% formic acid. The cleavage products were resolved by TLC as described above.
# (§2) A 20 μM concentration of each of purified proteins MutT, NudG, NadR, TrmE, and MBP (as a negative control) was incubated with 100 μM ppGpp in buffer B (containing 40 mM Tris [pH 7.5], 100 mM NaCl, and 10 mM MgCl2) for 20 min at room temperature. Samples were snap-frozen on dry ice and analyzed with UPLC-MS afterward. All samples and buffers were stored at −80°C, thawed on ice, and kept at 4°C during analysis. For the analysis, a UPLC-quadrupole time of flight (UPLC-qTOF) method (Waters) was used. Analysis conditions were as follows: column, zic-HILIC (Merck Millipore) (150 by 2.1 mm, […], gradient elution, flow rate set to 0.3 ml/min); mobile phase A, 10 mM ammonium acetate (pH 5); mobile phase B, 90% acetonitrile with 10 mM ammonium acetate (pH 5). The gradient was set up as follows: min 0 to 2, 80% B; min 2 to 16, 80% B to 50% B; hold until min 20; injection volume, 4 µl. The detection conditions were as follows: photodiode array detector (PDA), […] (evaluated at 260 nm); MS, ionization; electrospray ionization (ESI+), scan, 200 to 800 m/z with lock mass correction. Analytes were identified by their accurate mass and retention time data for a known standard dissolved in used buffer (for the chemicals of the same nominal masses). These standards were either synthesized and their structures confirmed by nuclear magnetic resonance (NMR) (for ppGp, pGpp, and pGp) or purchased (ppGpp was purchased from Jena Biocsience and GTP from Sigma-Aldrich).
# Apt [2] = biological target: T3, Apt (Escherichia coli, UniProt P69503); assay: DRaCALA binding, purified Apt; design: species or system E. coli; details: up to 150 µM Apt
# T3 sequence (P69503 whole entry): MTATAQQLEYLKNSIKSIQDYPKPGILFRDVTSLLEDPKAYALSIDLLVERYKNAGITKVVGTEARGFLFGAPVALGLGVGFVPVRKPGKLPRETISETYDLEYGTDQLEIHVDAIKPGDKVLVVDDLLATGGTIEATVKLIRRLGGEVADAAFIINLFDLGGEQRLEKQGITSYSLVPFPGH
# TrmE = TrmE (Escherichia coli, UniProt P25522); assay: In vitro cleavage assay (TLC), TrmE; assay type: biochemical, E. coli; details: 10 µM TrmE, buffer B, with 100 mM potassium where stated, 10 min
# Sequence of TrmE (P25522 whole entry): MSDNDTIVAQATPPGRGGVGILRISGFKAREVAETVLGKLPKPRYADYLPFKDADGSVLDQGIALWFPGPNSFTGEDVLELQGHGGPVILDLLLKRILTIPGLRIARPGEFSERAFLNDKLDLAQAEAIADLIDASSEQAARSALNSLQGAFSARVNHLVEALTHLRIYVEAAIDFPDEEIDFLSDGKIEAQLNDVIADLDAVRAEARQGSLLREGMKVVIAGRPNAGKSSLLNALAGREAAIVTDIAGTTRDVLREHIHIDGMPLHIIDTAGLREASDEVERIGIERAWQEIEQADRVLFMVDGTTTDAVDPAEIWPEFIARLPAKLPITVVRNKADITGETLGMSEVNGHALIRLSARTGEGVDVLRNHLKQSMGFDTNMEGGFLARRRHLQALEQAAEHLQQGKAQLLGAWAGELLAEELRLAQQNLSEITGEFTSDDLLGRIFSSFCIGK
# Description: as §1
# (§3) A 20 μM concentration of each of purified proteins MutT, NudG, NadR, TrmE, and MBP (as a negative control) was incubated with 100 μM ppGpp in buffer B (containing 40 mM Tris [pH 7.5], 100 mM NaCl, and 10 mM MgCl2) for 20 min at room temperature. Samples were snap-frozen on dry ice and analyzed with UPLC-MS afterward. All samples and buffers were stored at −80°C, thawed on ice, and kept at 4°C during analysis. For the analysis, a UPLC-quadrupole time of flight (UPLC-qTOF) method (Waters) was used. […] The detection conditions were as follows: photodiode array detector (PDA), […] (evaluated at 260 nm); MS, ionization; electrospray ionization (ESI+), scan, 200 to 800 m/z with lock mass correction. […]
# PurA [3] = biological target: T4, PurA (Escherichia coli, UniProt P0A7D4); assay: DRaCALA binding, purified PurA; design: species or system E. coli; details: PurA up to 150 µM
# T4 sequence (P0A7D4 whole entry): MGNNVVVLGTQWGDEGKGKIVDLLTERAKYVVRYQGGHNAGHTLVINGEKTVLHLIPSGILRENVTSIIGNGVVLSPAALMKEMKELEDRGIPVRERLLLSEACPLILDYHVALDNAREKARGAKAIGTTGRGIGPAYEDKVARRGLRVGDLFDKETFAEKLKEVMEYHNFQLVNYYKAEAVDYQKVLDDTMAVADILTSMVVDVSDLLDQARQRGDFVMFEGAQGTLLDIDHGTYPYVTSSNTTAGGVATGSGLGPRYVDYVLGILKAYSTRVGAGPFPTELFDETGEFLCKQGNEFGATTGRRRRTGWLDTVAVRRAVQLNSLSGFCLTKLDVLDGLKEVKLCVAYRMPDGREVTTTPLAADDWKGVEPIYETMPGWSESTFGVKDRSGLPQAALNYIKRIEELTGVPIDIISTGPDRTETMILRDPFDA
# Description: (§5) For Kd measurements by DRaCALA, 2-fold serial dilutions from the highest possible concentrations of each purified protein were prepared in binding buffer B, and approximately 2 nM concentrations of α-^32P-labeled ppGpp, pppGpp, GTP, and GDP were added. The mixtures were incubated for 5 min at RT before spotting of 2 µl of the reaction mixtures onto nitrocellulose membranes. The fractions of bound ligand and the apparent Kd values were calculated as previously described ([37]). For competition assays, purified proteins at the specified concentrations were incubated with 2 nM [α-^32P]ppGpp or [α-^32P]pppGpp in the presence of 100 μM competitor nucleotides in binding buffer B. The reaction mixtures were incubated for 5 min at RT, 2 µl was spotted onto nitrocellulose membranes, and the values corresponding to the bound fractions were determined. EDTA was added at excess concentrations as specified for each case.
# NadR = NadR (Escherichia coli, UniProt P27278); assay: In vitro cleavage assay (TLC), NadR; assay type: biochemical, E. coli; details: 10-20 µM NadR, buffer B with 100 mM NaCl, 10 min
# Sequence of NadR (P27278 whole entry): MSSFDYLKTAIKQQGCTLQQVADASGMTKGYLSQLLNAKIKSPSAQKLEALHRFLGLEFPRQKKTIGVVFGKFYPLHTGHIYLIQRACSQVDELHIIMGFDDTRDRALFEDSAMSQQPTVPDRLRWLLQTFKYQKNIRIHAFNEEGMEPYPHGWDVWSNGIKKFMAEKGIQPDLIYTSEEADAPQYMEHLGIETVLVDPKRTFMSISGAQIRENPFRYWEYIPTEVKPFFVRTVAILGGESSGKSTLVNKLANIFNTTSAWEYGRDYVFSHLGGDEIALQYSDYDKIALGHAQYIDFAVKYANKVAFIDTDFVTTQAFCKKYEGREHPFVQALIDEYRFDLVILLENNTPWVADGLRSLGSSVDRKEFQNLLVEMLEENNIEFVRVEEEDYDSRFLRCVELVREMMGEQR
# Description: The purified His6-MutT and His6-NudG proteins were tested for their relative levels of cleavage of ppGpp compared to those seen with their native substrates. For this, a 1 μM concentration of each protein and a 10 nM concentration of [α-^32P]ppGpp were used together with 100 μM concentrations of cold competitors [ppGpp, GTP, ATP, 8-oxo-(d)GTP, 2-hydroxyl-(d)ATP] or 50 mM EDTA in buffer B. The samples were incubated at 30°C for 10 min and for 1 h before the reactions were stopped by adding 50 mM EDTA. The cleavage products were resolved by TLC as described above. The purified His6-NadR and His6-TrmE proteins were tested for their cleavage of both GTP and ppGpp. […]
# as §3, with “afterward.” for “afterward. All samples and buffers were stored at −80°C, thawed on ice, and kept at 4°C during analysis. For the analysis, a UPLC-quadrupole time of flight (UPLC-qTOF) method (Waters) was used.”
# YgdH [4] = biological target: T1, YgdH; assay: DRaCALA competition assay, YgdH; assay type: binding, E. coli; details: 100 µM cold competitor; data not shown
# YgdH [5] = biological target: T1, YgdH; assay: TLC of YgdH binding reactions (degradation test); assay type: biochemical, E. coli; details: binding reactions analyzed by TLC
# PurA [6] = biological target: T4, PurA; details: cited from earlier work
# DnaG [7] = system: DnaG; design: method as in Table S1 (13); details: ref Table S1 (13); read-out: IC50, B. subtilis DnaG; cited from earlier work
# Hpt = Hpt (Escherichia coli, UniProt P0A9M2); assay: DRaCALA competition assay, Hpt; assay type: binding, E. coli; details: 20 µM Hpt, 2 nM hot ppGpp, 100 µM cold competitor
# Sequence of Hpt (P0A9M2 whole entry): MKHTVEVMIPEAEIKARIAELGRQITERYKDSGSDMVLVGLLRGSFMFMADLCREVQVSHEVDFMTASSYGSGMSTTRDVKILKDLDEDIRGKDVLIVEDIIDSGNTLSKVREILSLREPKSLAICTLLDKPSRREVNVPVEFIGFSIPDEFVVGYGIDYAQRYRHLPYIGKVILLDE
# Description: as §5
# MutT = MutT (Escherichia coli, UniProt P08337); assay: In vitro cleavage assay (TLC), MutT; assay type: biochemical, E. coli; details: purified MutT, buffer B with 10 mM MgCl2, TLC
# Sequence of MutT (P08337 whole entry): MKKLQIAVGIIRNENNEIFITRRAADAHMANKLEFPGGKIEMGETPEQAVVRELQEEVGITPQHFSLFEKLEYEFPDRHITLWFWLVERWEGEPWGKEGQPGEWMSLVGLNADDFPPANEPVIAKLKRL
# Description: as §1, §2
# Gpt = Gpt (Escherichia coli, UniProt P0A9M5); assay: DRaCALA competition assay, Gpt; assay type: binding, E. coli; details: 20 µM Gpt, 2 nM hot ppGpp, 100 µM cold competitor
# Sequence of Gpt (P0A9M5 whole entry): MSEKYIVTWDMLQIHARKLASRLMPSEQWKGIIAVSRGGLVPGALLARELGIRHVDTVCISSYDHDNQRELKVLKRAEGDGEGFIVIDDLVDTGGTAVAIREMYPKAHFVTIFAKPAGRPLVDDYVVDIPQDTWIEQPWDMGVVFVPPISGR
# Description: The mixtures were incubated for 5 min at RT before spotting of 2 µl of the reaction mixtures onto nitrocellulose membranes. […] For competition assays, purified proteins at the specified concentrations were incubated with 2 nM [α-^32P]ppGpp or [α-^32P]pppGpp in the presence of 100 μM competitor nucleotides in binding buffer B. The reaction mixtures were incubated for 5 min at RT, 2 µl was spotted onto nitrocellulose membranes, and the values corresponding to the bound fractions were determined.
# GuaB = biological target: GuaB; design: method as in ref 29, 31, 47 (Table S1 ref 5); details: 47 (Table S1 ref 5); cited from earlier work
# RNAP /DksA = system: RNAP /DksA; design: method as in Table S1 (14); details: ref Table S1 (14); cited from earlier work
# DnaG [8] = details: ref Table S1 (12); cited from earlier work
# UshA = biological target: T5, UshA (Escherichia coli, UniProt P07024); assay: Cleavage of (p)ppGpp by UshA; assay type: biochemical, E. coli
# T5 sequence (P07024 26-550): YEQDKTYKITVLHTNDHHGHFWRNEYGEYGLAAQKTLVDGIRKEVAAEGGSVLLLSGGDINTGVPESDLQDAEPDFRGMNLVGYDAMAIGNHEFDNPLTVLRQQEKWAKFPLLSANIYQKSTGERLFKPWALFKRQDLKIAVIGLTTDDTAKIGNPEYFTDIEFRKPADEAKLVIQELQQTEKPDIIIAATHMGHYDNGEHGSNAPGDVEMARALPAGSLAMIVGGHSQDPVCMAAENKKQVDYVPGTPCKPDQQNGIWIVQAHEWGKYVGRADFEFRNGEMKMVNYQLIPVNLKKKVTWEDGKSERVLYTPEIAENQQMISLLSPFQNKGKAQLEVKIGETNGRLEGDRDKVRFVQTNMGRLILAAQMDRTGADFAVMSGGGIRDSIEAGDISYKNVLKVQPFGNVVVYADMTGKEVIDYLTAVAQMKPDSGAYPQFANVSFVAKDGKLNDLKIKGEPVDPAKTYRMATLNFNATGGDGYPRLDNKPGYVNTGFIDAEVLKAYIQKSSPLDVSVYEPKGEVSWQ
# Text: (§4) Supplement mbo001183765st1.docx, table 1: Table S1. List of proteins that bind or cleave (p)ppGpp. | column: Binding (Kd or otherwise stated in µM) or cleavage of (p)ppGpp in E. coli
# YybT /GdpP = details: other bacteria, cited from earlier work
# RelA = system: RelA; design: method as in ref 36 (Table S1 ref 16); details: ref 36 (Table S1 ref 16); cited from earlier work
# Apt [9] = biological target: T3, Apt; details: ref Table S1 (2); cited from earlier work
# PhoA = PhoA (Escherichia coli, UniProt P00634); assay: Cleavage of (p)ppGpp by PhoA; assay type: biochemical, E. coli
# Sequence of PhoA (P00634 22-471): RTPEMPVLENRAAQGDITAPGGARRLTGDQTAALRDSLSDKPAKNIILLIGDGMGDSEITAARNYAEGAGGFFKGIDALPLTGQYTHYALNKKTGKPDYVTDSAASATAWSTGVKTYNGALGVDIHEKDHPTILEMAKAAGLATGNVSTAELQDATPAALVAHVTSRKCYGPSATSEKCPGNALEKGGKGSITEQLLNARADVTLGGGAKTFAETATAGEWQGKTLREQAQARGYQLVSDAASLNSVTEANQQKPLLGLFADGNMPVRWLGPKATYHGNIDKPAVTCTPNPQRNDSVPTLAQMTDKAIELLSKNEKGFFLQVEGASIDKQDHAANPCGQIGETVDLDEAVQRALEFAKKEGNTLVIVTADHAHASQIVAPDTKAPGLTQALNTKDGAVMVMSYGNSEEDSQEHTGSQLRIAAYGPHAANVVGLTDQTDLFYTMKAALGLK
# Text: as §4
substance,measurement,setting,value
(p)ppGpp,binding to purified YgdH,YgdH [1],not able to significantly bind
same,cleavage by NudG,NudG,Cleavage of (p)ppGpp into pGp
same,binding to Apt,Apt [2],no significant binding
same,cleavage by TrmE,TrmE,some degradation; also recorded: Cleavage of (p)ppGpp into ppGp/pGpp
same,binding to PurA,PurA [3],no specific binding; also recorded: does not significantly bind
same,cleavage by NadR,NadR,some degradation; also recorded: Cleavage of (p)ppGpp into ppGp/pGpp
same,competition for (p)ppGpp binding to YgdH,YgdH [4],could outcompete
same,degradation by YgdH,YgdH [5],not degraded
same,Ki,PurA [6]; ref Table S1 (5),140 µM
same,Ki,PurA [6]; ref Table S1 (6),50 µM
same,IC50,DnaG [7],500 µM
same,competition for bound [α-32P]ppGpp on Hpt,Hpt,partially outcompete
same,cleavage by MutT,MutT,Cleavage of (p)ppGpp into pGp
same,competition for bound [α-32P]ppGpp on Gpt,Gpt,partially outcompete
same,Ki,GuaB,30 to 50 µM
same,IC50,RNAP /DksA,15 µM
same,IC50,DnaG [8],200 µM
same,cleavage by UshA,UshA,Non-specific cleavage of (p)ppGpp into (p)pi
same,Ki,YybT /GdpP; ref Table S1 (21),36 µM
same,Ki,YybT /GdpP; ref Table S1 (22),130 µM
same,effect on RelA activity,RelA,Synthesis of and stimulated by (p)ppGpp; (16)
same,IC50,Apt [9],1500 µM
same,cleavage by PhoA,PhoA,Non-specific cleavage of (p)ppGpp into (p)pi
